From publication PMC12830821 (Communications Biology, 2025)

Legend:
Assay type in all cases: cell-based
[1] = target: chicken TRPM8 (cTRPM8) (Gallus gallus, UniProt A0AA95FIJ1)
[2] = target: T1, human TRPM8 (hTRPM8) (Homo sapiens, UniProt Q7Z2W7)
[3] = target: T2, rat TRPM8 (rTRPM8) (Rattus norvegicus, UniProt Q8R455)
[4] = target: T1, human TRPM8 (hTRPM8); assay: calcium imaging
[5] = target: T2, rat TRPM8 (rTRPM8); assay: calcium imaging

T1 sequence (Q7Z2W7 whole entry): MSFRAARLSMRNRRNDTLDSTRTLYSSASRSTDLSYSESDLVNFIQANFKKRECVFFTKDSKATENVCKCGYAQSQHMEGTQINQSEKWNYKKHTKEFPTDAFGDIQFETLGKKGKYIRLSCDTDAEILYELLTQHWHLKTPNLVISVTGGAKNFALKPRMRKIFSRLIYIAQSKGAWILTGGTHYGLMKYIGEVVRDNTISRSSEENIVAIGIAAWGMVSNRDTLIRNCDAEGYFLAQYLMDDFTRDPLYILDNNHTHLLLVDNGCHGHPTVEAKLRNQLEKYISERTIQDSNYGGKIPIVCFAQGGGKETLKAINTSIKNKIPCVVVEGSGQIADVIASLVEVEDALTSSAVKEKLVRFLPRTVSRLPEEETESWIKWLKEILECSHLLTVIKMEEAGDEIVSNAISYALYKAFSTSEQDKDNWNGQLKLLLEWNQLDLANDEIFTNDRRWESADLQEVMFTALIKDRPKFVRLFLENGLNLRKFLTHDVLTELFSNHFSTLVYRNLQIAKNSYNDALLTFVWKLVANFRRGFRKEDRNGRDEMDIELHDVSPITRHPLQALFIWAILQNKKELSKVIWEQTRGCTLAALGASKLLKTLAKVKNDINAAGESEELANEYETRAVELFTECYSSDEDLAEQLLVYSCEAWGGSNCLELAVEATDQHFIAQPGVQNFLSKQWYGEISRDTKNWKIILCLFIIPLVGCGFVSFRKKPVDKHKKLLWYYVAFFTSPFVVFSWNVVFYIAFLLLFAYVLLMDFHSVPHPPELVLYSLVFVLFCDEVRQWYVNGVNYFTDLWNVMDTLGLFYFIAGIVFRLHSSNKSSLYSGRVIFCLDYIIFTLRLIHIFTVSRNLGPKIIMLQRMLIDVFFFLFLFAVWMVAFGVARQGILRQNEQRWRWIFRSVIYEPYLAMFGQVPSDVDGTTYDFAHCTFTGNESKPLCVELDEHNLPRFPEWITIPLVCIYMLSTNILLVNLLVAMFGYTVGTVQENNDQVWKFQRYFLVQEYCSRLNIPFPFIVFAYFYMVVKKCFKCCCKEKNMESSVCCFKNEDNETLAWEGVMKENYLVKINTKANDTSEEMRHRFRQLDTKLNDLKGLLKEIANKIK
T2 sequence (Q8R455 whole entry): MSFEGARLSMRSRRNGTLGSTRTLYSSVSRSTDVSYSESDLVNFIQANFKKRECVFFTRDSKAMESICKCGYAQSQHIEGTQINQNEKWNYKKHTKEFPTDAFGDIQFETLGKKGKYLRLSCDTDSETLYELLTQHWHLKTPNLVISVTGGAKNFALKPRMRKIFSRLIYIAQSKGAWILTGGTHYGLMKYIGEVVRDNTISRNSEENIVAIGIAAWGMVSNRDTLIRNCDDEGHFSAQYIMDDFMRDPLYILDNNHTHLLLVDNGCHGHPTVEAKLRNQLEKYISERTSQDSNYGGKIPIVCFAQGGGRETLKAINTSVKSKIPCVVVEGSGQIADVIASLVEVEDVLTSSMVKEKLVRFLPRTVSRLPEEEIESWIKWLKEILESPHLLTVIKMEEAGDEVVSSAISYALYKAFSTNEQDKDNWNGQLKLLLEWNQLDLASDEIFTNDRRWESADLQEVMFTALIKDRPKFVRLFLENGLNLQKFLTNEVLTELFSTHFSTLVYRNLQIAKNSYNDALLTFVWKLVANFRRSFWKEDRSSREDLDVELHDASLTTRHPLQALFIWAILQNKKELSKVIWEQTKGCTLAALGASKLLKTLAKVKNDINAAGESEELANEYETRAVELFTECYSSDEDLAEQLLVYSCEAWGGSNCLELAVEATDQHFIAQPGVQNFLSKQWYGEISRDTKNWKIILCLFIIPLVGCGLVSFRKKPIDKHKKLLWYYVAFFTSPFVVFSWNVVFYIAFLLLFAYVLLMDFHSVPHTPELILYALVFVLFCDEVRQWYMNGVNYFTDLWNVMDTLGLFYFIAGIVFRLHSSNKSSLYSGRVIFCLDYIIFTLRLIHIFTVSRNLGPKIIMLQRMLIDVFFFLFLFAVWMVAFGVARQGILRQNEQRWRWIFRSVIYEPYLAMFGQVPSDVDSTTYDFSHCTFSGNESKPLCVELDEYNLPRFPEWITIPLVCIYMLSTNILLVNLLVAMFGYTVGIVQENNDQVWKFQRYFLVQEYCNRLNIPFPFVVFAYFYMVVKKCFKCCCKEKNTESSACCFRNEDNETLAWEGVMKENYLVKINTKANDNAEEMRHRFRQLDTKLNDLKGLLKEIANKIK
Chain of chicken TRPM8 (cTRPM8) (A0AA95FIJ1 1-1111): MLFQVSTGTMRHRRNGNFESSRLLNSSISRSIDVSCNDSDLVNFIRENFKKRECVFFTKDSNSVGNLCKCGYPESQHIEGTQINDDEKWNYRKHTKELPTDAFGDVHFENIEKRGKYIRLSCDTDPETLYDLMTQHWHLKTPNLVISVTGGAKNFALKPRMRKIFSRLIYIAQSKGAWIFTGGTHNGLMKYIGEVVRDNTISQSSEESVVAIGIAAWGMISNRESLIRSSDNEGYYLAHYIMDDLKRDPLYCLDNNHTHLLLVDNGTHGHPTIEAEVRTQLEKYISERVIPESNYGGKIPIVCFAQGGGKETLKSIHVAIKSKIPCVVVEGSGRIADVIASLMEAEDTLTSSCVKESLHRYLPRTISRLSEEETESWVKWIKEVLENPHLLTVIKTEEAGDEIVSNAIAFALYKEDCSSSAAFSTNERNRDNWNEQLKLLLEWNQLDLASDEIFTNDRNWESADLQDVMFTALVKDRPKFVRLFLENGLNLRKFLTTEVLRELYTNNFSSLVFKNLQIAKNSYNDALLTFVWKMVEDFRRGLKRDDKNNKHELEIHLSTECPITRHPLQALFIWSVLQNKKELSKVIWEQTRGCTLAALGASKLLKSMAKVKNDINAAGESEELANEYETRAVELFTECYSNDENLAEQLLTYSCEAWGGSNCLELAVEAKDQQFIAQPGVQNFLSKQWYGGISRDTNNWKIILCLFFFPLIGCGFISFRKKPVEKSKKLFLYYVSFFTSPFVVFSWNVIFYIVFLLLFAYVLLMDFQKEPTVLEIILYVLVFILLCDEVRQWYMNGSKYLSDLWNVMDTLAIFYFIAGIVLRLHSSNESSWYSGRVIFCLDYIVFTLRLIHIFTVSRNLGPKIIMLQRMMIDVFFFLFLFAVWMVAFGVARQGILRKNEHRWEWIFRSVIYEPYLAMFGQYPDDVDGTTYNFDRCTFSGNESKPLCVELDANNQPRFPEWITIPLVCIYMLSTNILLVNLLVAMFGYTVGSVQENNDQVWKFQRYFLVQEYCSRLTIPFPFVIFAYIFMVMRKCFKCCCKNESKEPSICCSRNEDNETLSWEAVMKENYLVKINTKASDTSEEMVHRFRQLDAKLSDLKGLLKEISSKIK

| EC50 [1] [nM] | EC50 [2] [nM] | Structure (SMILES) | EC50 [3] | calcium imaging (10 μM) in transfected HEK293T cells [4] | calcium imaging (10 μM) in transfected HEK293T cells [5] |
| --- | --- | --- | --- | --- | --- |
| 250 | 2430 | CCCCCCCP(=O)(C(C)C)C(C)C [C-1, 1-di(propan-2-yl)phosphorylheptane] | Rat TRPM8 showed intermediate EC50 values |  |  |
|  |  | O=C1NC(c2cccc([N+](=O)[O-])c2)=CCN1c1ccccc1O [icilin, 1-(2-hydroxyphenyl)-4-(V3-nitrophenyl)-l,2,3,6-tetrahydropyrimidine-2-one] |  | As expected, icilin activated only the mammalian orthologs | As expected, icilin activated only the mammalian orthologs |
